# Test results: publication PMC7438494 (Communications Biology, 2020)
# “And” between values parts separate entries of the source, which are not always exact repeats. Equal values may be shown once. Read-outs that look alike come from different tables or passages of the source.
# Target: human ATP synthase (Homo sapiens, UniProt P00846+P05496)
# Assay: biochemical
# Format: biochemical
# [1] = BDQ 0.65 uM, […], frozen human mito, BDQ in DMSO
# [2] = BDQ 0.65 uM, cyanide sensitive, 60 min, frozen human mito, BDQ in DMSO
# [3] = BDQ 1 uM, […], frozen human mito, BDQ in DMSO
# [4] = BDQ 1 uM, cyanide sensitive, human
# [5] = BDQ 2 uM, […], frozen human mito, BDQ in DMSO
# [6] = BDQ 5 uM, […], frozen human mito, BDQ in DMSO
# [7] = BDQ 5 uM, cyanide sensitive, human
# [8] = BDQ 10 uM, […], frozen human mito, BDQ in DMSO
# [9] = BDQ 10 uM, cyanide sensitive, human
# [10] = Human Mito, 1st exp (12-14-18), Bedaquiline 0.05 μM, 60 min
# [11] = Human Mito, 2nd exp (12-17-18), Bedaquiline 0.05 μM, 60 min
smiles,measurement,setting,value
"COc1nc2ccc(Br)cc2cc1[C@@H](c1ccccc1)[C@@](O)(CCN(C)C)c1cccc2ccccc12 [BDQ, Bedaquiline]",cyanide sensitive % inhibition,"BDQ 0.5 uM, cyanide sensitive, human",66.6% and 70.0% and 42.0% and 48.8% and 35.1%
same,% activity,[1],30.2506%
same,% inhibition,[1],69.7494%
same,"ATP produced, nmol/min/mg",[1],2.55 nmol/min/mg
same,"ATP produced, pmol/min/mg",[1],2547.17 pmol/min/mg
same,activity at 0.65 µM,"BDQ 0.65 uM, […], frozen human mito, BDQ in DMSO, read-out: % activity",30.3%
same,activity at 0.65 µM,"BDQ 0.65 uM, […], frozen human mito, BDQ in DMSO, read-out: % activity, cyanide sensitive",18.5%
same,inhibition at 0.65 µM,"BDQ 0.65 uM, […], frozen human mito, BDQ in DMSO, read-out: % inhibition",69.7%
same,inhibition at 0.65 µM,"BDQ 0.65 uM, […], frozen human mito, BDQ in DMSO, read-out: % inhibition, cyanide sensitive",81.5%
same,"cyanide sensitive ATP produced, nmol/min/mg",[2],1.33 nmol/min/mg
same,"cyanide sensitive ATP produced, pmol/min/mg",[2],1329.08 pmol/min/mg
same,cyanide sensitive % inhibition,"BDQ 0.85 uM, cyanide sensitive, human",67.5% and 100.0% and 66.9%
same,% activity,[3],17.1322%
same,"% activity, cyanide sensitive",[3],3.117%
same,% inhibition,[3],82.8678%
same,"ATP produced, nmol/min/mg",[3],1.44 nmol/min/mg
same,"ATP produced, pmol/min/mg",[3],1442.57 pmol/min/mg
same,activity at 1 µM,"BDQ 1 uM, […], frozen human mito, BDQ in DMSO, read-out: % activity",17.1%
same,inhibition at 1 µM,"BDQ 1 uM, […], frozen human mito, BDQ in DMSO, read-out: % inhibition",82.9%
same,inhibition at 1 µM,"BDQ 1 uM, […], frozen human mito, BDQ in DMSO, read-out: % inhibition, cyanide sensitive",96.9%
same,"cyanide sensitive ATP produced, pmol/min/mg","BDQ 1 uM, cyanide sensitive, 60 min, frozen human mito, BDQ in DMSO",224.48 pmol/min/mg
same,cyanide sensitive % activity,[4],-0.8% and 8.7% and -0.171%
same,cyanide sensitive % inhibition,[4],91.3% and 100.2%
same,inhibition at 1 µM,"BDQ 1 uM, cyanide sensitive, human, read-out: cyanide sensitive % inhibition",101%
same,% activity,[5],12.0221%
same,% inhibition,[5],87.9779%
same,"ATP produced, nmol/min/mg",[5],1.01 nmol/min/mg
same,"ATP produced, pmol/min/mg",[5],1012.29 pmol/min/mg
same,activity at 2 µM,"BDQ 2 uM, […], frozen human mito, BDQ in DMSO, read-out: % activity",12%
same,activity at 2 µM,"BDQ 2 uM, […], frozen human mito, BDQ in DMSO, read-out: % activity, cyanide sensitive",-2.86%
same,inhibition at 2 µM,"BDQ 2 uM, […], frozen human mito, BDQ in DMSO, read-out: % inhibition",88%
same,inhibition at 2 µM,"BDQ 2 uM, […], frozen human mito, BDQ in DMSO, read-out: % inhibition, cyanide sensitive",103%
same,"cyanide sensitive ATP produced, pmol/min/mg","BDQ 2 uM, cyanide sensitive, 60 min, frozen human mito, BDQ in DMSO",-205.80 pmol/min/mg
same,cyanide sensitive % inhibition,"BDQ 2 uM, cyanide sensitive, human",98.3% and 117.8% and 98.9% and 97.2% and 102.7%
same,% activity,[6],17.1136%
same,"% activity, cyanide sensitive",[6],3.095%
same,% inhibition,[6],82.8864%
same,"ATP produced, nmol/min/mg",[6],1.44 nmol/min/mg
same,"ATP produced, pmol/min/mg",[6],1441.00 pmol/min/mg
same,activity at 5 µM,"BDQ 5 uM, […], frozen human mito, BDQ in DMSO, read-out: % activity",17.1%
same,inhibition at 5 µM,"BDQ 5 uM, […], frozen human mito, BDQ in DMSO, read-out: % inhibition",82.9%
same,inhibition at 5 µM,"BDQ 5 uM, […], frozen human mito, BDQ in DMSO, read-out: % inhibition, cyanide sensitive",96.9%
same,"cyanide sensitive ATP produced, pmol/min/mg","BDQ 5 uM, cyanide sensitive, 60 min, frozen human mito, BDQ in DMSO",222.91 pmol/min/mg
same,cyanide sensitive % activity,[7],-7.0% and -10.1% and -4.1% and -2.6% and -5.6%
same,cyanide sensitive % inhibition,[7],107.0% and 110.1% and 102.6% and 105.6%
same,inhibition at 5 µM,"BDQ 5 uM, cyanide sensitive, human, read-out: cyanide sensitive % inhibition",104%
same,% activity,[8],14.9815%
same,"% activity, cyanide sensitive",[8],0.6024%
same,% inhibition,[8],85.0185%
same,"ATP produced, nmol/min/mg",[8],1.26 nmol/min/mg
same,"ATP produced, pmol/min/mg",[8],1261.47 pmol/min/mg
same,activity at 10 µM,"BDQ 10 uM, […], frozen human mito, BDQ in DMSO, read-out: % activity",15%
same,inhibition at 10 µM,"BDQ 10 uM, […], frozen human mito, BDQ in DMSO, read-out: % inhibition",85%
same,inhibition at 10 µM,"BDQ 10 uM, […], frozen human mito, BDQ in DMSO, read-out: % inhibition, cyanide sensitive",99.4%
same,"cyanide sensitive ATP produced, pmol/min/mg","BDQ 10 uM, cyanide sensitive, 60 min, frozen human mito, BDQ in DMSO",43.39 pmol/min/mg
same,cyanide sensitive % activity,[9],-1.4%
same,cyanide sensitive % inhibition,[9],101.4%
same,inhibition at 10 µM,"BDQ 10 uM, cyanide sensitive, human, read-out: cyanide sensitive % inhibition",102%
same,Cyanide sensitive,[10],4.658 nmol/min/mg
same,activity at 0.05 µM,[10],64.1%
same,Cyanide sensitive,"Human Mito, 1st exp (12-14-18), Bedaquiline 0.1 μM, 60 min",6.127 nmol/min/mg
same,activity at 0.1 µM,"Human Mito, 1st exp (12-14-18), Bedaquiline 0.1 μM, 60 min, read-out: % activity",84.3%
same,Cyanide sensitive,"Human Mito, 1st exp (12-14-18), Bedaquiline 0.2 μM, 60 min",4.027 nmol/min/mg
same,activity at 0.2 µM,"Human Mito, 1st exp (12-14-18), Bedaquiline 0.2 μM, 60 min, read-out: % activity",55.4%
same,Cyanide sensitive,"Human Mito, 1st exp (12-14-18), Bedaquiline 0.5 μM, 60 min",2.18 nmol/min/mg
same,activity at 0.5 µM,"Human Mito, 1st exp (12-14-18), Bedaquiline 0.5 μM, 60 min, read-out: % activity",30%
same,Cyanide sensitive,"Human Mito, 1st exp (12-14-18), Bedaquiline 0.65 μM, 60 min",-0.9359 nmol/min/mg
same,activity at 0.65 µM,"Human Mito, 1st exp (12-14-18), Bedaquiline 0.65 μM, 60 min, read-out: % activity",-12.9%
same,Cyanide sensitive,"Human Mito, 1st exp (12-14-18), Bedaquiline 0.85 μM, 60 min",-0.002656 nmol/min/mg
same,activity at 0.85 µM,"Human Mito, 1st exp (12-14-18), Bedaquiline 0.85 μM, 60 min, read-out: % activity",-0.0365%
same,Cyanide sensitive,"Human Mito, 1st exp (12-14-18), Bedaquiline 2 μM, 60 min",-1.2927 nmol/min/mg
same,activity at 2 µM,"Human Mito, 1st exp (12-14-18), Bedaquiline 2 μM, 60 min, read-out: % activity",-17.8%
same,Cyanide sensitive,"Human Mito, 1st exp (12-14-18), Bedaquiline 5 μM, 60 min",-0.5097 nmol/min/mg
same,activity at 5 µM,"Human Mito, 1st exp (12-14-18), Bedaquiline 5 μM, 60 min, read-out: % activity",-7.01%
same,activity at 0.1 µM,"Human Mito, 1st exp (18_12_14), BDQ 0.1 uM, read-out: Cyanide sensitive % activity",73.2%
same,activity at 0.2 µM,"Human Mito, 1st exp (18_12_14), BDQ 0.2 uM, read-out: Cyanide sensitive % activity",57.7%
same,activity at 0.5 µM,"Human Mito, 1st exp (18_12_14), BDQ 0.5 uM, read-out: Cyanide sensitive % activity",44%
same,activity at 0.85 µM,"Human Mito, 1st exp (18_12_14), BDQ 0.85 uM, read-out: Cyanide sensitive % activity",16.6%
same,activity at 2 µM,"Human Mito, 1st exp (18_12_14), BDQ 2 uM, read-out: Cyanide sensitive % activity",-8.33%
same,Cyanide sensitive,[11],3.788 nmol/min/mg
same,activity at 0.05 µM,[11],43.8%
same,Cyanide sensitive,"Human Mito, 2nd exp (12-17-18), Bedaquiline 0.1 μM, 60 min",5.369 nmol/min/mg
same,activity at 0.1 µM,"Human Mito, 2nd exp (12-17-18), Bedaquiline 0.1 μM, 60 min, read-out: % activity",62%
